# From patent US20150223465A1, “COMPOSITION CONTAINING 3-CYCLOPROPYL-1-ENYL-PROPANOIC ACID SALTS AND A CARRIER” (Yissum Research Development Company of the Hebrew …, priority 2012, published 2015)
# Assays:
# [1] = system: cut carnation flowers; assay: Water uptake of treated cut flowers; details: 60 or 120 ppm CPAS in 20 mM NaHCO3 pH 8.2; 36 cm stems; 48 hours after termination of ethylene exposure (2 ppm, 24 h)
# Protocol: Water Uptake: The uptake of water by cut flowers was measured after CPAS loading and after ethylene exposure (exposure to 2 ppm ethylene for 24 hours, unless otherwise indicated). The aqueous treatment solution was maintained at 20 mL by addition of tap water after each treatment.
# Aqueous treatment solutions of CPAS were prepared and tested, each of which contained 0, 60 or 120 ppm of CPAS in 20 mM NaHCO3 (pH 8.2). Cut flowers (36 cm long stems) were treated according to the treatment procedure described above.
# [2] = system: carnation flowers; assay: Spraying cut carnations with CPAS solution, then 2 ppm ethylene for 24 h; assay type: in vivo, carnation (Dianthus caryophyllus)
# Protocol: Carnation flowers were harvested at the full bloom stage, when the outer petals deflected at right angles to the stem. The flowers were selected for uniformity in terms of flower diameter and placed in tap water. […] The deionized water was used to avoid salt precipitation due to the existence of calcium in tap water. The treatment solution contained a surfactant, Triton-X 100™ (0.05%). Twenty-four hours after the spraying application, the flowers were treated with 2 ppm ethylene for 24 hours. During treatment and during observation of vase-life, the flowers were kept at 22° C. Each treatment was carried out in three replicates, 3 flowers in each replicate.
# Carnation flowers were harvested at the full bloom stage, when the outer petals deflected at right angles to the stem. The flowers were selected for uniformity in terms of flower diameter and placed in tap water. The flowers were then sprayed with various concentrations of CPAS (sodium salt) ranging from 15 to 60 ppm dissolved in NaHCO3 (pH 8.2, 20 and 40 mM) in tap water. The treatment solution contained a surfactant, Kinetic® (0.05%). Twenty-four hours after the CPAS spraying application, the flowers were treated with 2 ppm ethylene for 24 hours. During treatment and during observation of vase-life, the flowers were kept 22° C. Each treatment was carried out in three replicates, 3 flowers in each replicate.
# [3] = system: cut carnation flowers; assay: Delaying senescence of cut carnation flowers: loading 24 h in CPAS solution, then 2 ppm ethylene for 24 h, visual inspection/photographs; assay type: in vivo, carnation (Dianthus caryophyllus); set-up: key: The result “−” means no ethylene antagonizing effect by visual inspection.; The result “+” means low ethylene antagonizing effect by visual inspection.; The result “++” means medium ethylene antagonizing effect by visual inspection.; The result “+++” means high ethylene antagonizing effect by visual inspection.; The result “++++” means very high ethylene antagonizing effect by visual inspection; details: CPAS sodium salt 20-120 ppm, 36-55 cm stems
# Description: The ethylene antagonizing effect of composition described herein can be assessed by its effect of delaying senescence of cut plants, such as cut flowers. Some embodiments of the present invention are based on the use of the composition described herein to treat cut flowers for delaying senescence of the cut flowers.
# Cut Flowers: Unless otherwise noted, carnation flowers grown in a greenhouse were harvested at the beginning of flower opening stage, early in the morning, and were immediately brought to the laboratory. The flowers were either processed immediately or stored in a cold room (4° C.) for 1 to 5 days as required.
# Treatment Procedure: The flower stems were cut under tap water to the desired lengths (15 cm-55 cm). Four flowers for each treatment group (of two flowers per each groups) were loaded in a 20 mL aqueous treatment solution (or “loading solution”) for 24 hours. The treatment solution was placed in a 35 mL tube. The loading solutions of CPAS in buffers were prepared in distilled water, as described hereinafter. At the end of CPAS loading, the flowers were transferred to tap water for 1 to 4 days until the cut flowers open. The cut flowers were then exposed to 2 ppm ethylene for 24 hours. Control cut flowers were loaded in a control solution without CPAS in the same manner as the treated cut flowers, and were thereafter exposed to ethylene or air. […]
# [4] = system: carnation flowers; assay: Loading 14-18 h with CPAS, 0-72 h in tap water, then ethylene for 24 h; vase life assessment; assay type: in vivo, carnation (Dianthus caryophyllus); details: for protection from ethylene-induced senescence: loading 14-18 h, 1.0 ppm ethylene 24 h
# Protocol: Carnation flower stems were cut under tap water to the desired lengths (36 and 55 cm). Four flowers per treatment, in groups of two flowers each, were loaded for 14-18 hours in 20 mL of treatment solutions containing 0, 30, 60 and 120 mg L^−1 CPAS in either an aqueous solution containing sodium carbonate/sodium bicarbonate buffer (40 mM, pH=9.5) and 0.025% Tween 20 or an aqueous solution containing K-Phosphate Buffer (40 mM, pH=7.8) and 0.025% Tween 20. At the end of CPAS loading (14-18 hours), groups of treated flowers were transferred into tap water for 0, 24, 48 and 72 hours. The cut flowers were then exposed to 1.0 ppm ethylene for 24 hours. At the end of the ethylene treatment, the flowers were ventilated and left under controlled conditions for additional 11, 10, 9, 8 days, respectively, for vase life assessment. Pictures of were taken 13 days after beginning of the experiment. It is noted that the carnation flowers tested were highly sensitive to ethylene, and therefore exposure to ethylene at an amount of 1.0 ppm was effected.
# [5] = system: cut carnation flowers; assay: Flower diameter of cut carnations after CPAS loading and ethylene exposure; assay type: in vivo, carnation (Dianthus caryophyllus)
# Protocol: Treatment Procedure: The flower stems were cut under tap water to the desired lengths (15 cm-55 cm). Four flowers for each treatment group (of two flowers per each groups) were loaded in a 20 mL aqueous treatment solution (or “loading solution”) for 24 hours. The treatment solution was placed in a 35 mL tube. The loading solutions of CPAS in buffers were prepared in distilled water, as described hereinafter. At the end of CPAS loading, the flowers were transferred to tap water for 1 to 4 days until the cut flowers open. The cut flowers were then exposed to 2 ppm ethylene for 24 hours. Control cut flowers were loaded in a control solution without CPAS in the same manner as the treated cut flowers, and were thereafter exposed to ethylene or air. At the end of ethylene exposure, the flowers were ventilated and left in tap water under controlled conditions (a temperature of 22° C., a relative humidity of 80%, and continuous fluorescent light) for additional 5 days for senescence assessment.
# Flower Diameter: In some experiments, flower diameter was determined according to the method described in Goren et al., Plant Growth Regulation 65:327-334 (2011), to assess flower quality.
structure (smiles),measurement,setting,value
"O=C([O-])CCC1=CC1.[Na+] [CPAS, 3-cyclopropyl-1-enyl-propanoic acid salt]",water uptake of flowers,[1],increased water uptake
same,effect on ethylene-induced flower senescence,"[2]; 15 ppm CPAS in NaHCO3 pH 8.2 (20 and 40 mM), Kinetic 0.05%, tap water",little effect
same,effect on ethylene-induced flower senescence,"[2]; 40 ppm CPAS in Na2CO3/NaHCO3 buffer pH 9.2 below 60 mM, Triton-X 100 0.05%, deionized water",little effect
same,effect on ethylene-induced flower senescence,"[2]; 80 and 120 ppm CPAS in Na2CO3/NaHCO3 buffer pH 9.2, 40 and 60 mM, Triton-X 100 0.05%",significant effect
same,"delay of flower senescence, tap water versus DI water",[2]; CPAS in NaHCO3 (40 mM) dissolved in tap water compared with DI water,more efficiently
same,effect on ethylene-induced flower senescence,"[2]; higher CPAS concentrations (up to 60 ppm) in NaHCO3 pH 8.2 (20 and 40 mM), Kinetic 0.05%, tap water",significantly delayed flower senescence
same,"Results (efficacy of CPAS, ethylene antagonizing effect by visual inspection)",[3]; EDTA 500-1000 ppm,+
same,"Results (efficacy of CPAS, ethylene antagonizing effect by visual inspection)",[3]; KHCO3 20-80 mM pH 8.2,++
same,protection from ethylene-induced senescence,"[4]; CPAS 60 and 120 mg L^−1 in K-Phosphate buffer 40 mM pH 7.8, 0.025% Tween 20",almost no protection
same,protection from ethylene-induced senescence,"[4]; CPAS 60 and 120 mg L^−1 in sodium carbonate/sodium bicarbonate buffer 40 mM pH 9.5, 0.025% Tween 20",significantly protected
same,protection with ethylene treatment 2 and 3 days after pretreatment,[4]; CPAS at the two higher concentrations in Na-Carbonate buffer,more protected as the incubation time increases
same,resistance to ethylene-induced flower senescence after pretreatment,[4]; ethylene exposure 3 days after pretreatment with CPAS,resistant
same,senescence of cut flowers as measured by flower diameter,"[5]; 55 cm stems, 100, 120 or 140 ppm CPAS in Na-phosphate or Na-phosphate/citrate buffer containing NaHCO3",delayed senescence was generally observed
same,effect of NaHCO3 concentration (60 or 80 mM) on treatment results,"[5]; 55 cm stems, CPAS in Na-phosphate buffer (20 mM) containing NaHCO3",did not significantly affect the treatment results
same,effect of NaHCO3 concentration (60 or 80 mM) on treatment results,"[5]; 55 cm stems, CPAS in Na-phosphate/citrate buffer (20 mM) containing NaHCO3",80 mM NaHCO3 yielding better treatment results than 60 mM NaHCO3
same,senescence of cut flowers as measured by flower diameter,"[5]; stem length 55 cm, 80 or 120 ppm CPAS in 40, 60 or 80 mM Na2CO3/NaHCO3 buffer",delayed senescence
same,senescence of cut flowers as measured by flower diameter,"[5]; stem length 55 cm, 80 ppm CPAS in 80 mM NaHCO3",delayed senescence
same,ethylene antagonizing effect compared among NaHCO3 concentrations,"[5]; stem length 55 cm, 120 ppm CPAS in 60 mM NaHCO3 versus 40 and 80 mM",highest ethylene antagonizing effect
same,senescence of cut flowers as measured by flower diameter,"[5]; stem length 55 cm, 120 ppm CPAS in 40, 60 or 80 mM NaHCO3",delayed senescence
